Data published in patent publication US10190104B2, “Isoform of anaplastic lymphoma kinase and its uses” (Memorial Sloan-Kettering Cancer Center, priority 2014, dated 2019).

Tested on: ALK-transformed Ba/F3 cells
Assay: Cell viability assay of Ba/F3 cells expressing ALK isoforms treated with ALK inhibitors
Type: cell-based, murine
Settings: cell viability after 72 hours; for IL-3-independent growth of ALK-transformed Ba/F3 cells: absence of IL-3, CellTiter-Glo; for growth in the presence of IL-3: presence of IL-3 (1 ng/ml)
Protocol: Ba/F3 cells were stably transduced with MSCV-ALK^variant-IRES-GFP constructs with a multiplicity of infection (MOI) of ˜0.26. Based on the MOI calculations, ˜78% of cells were uninfected, ˜20% of cells were infected with one virus particle, and ˜2% of cells were infected by more than one viral particle. Stably transduced Ba/F3 cells were cultured in RPMI medium supplemented with IL-3 (1 ng ml-1) and the transduction rate of 20% was validated using flow cytometry for GFP, that was co-expressed with the ALK variants. For the cell proliferation assay, transduced Ba/F3 cells were transferred into IL-3 depleted RPMI medium and cell growth was quantified every 2-4 days with a luminescence assay (#G7571, Promega). […] All drugs were suspended in DMSO. The cell viability was assessed after 72 hours by a luminescence assay CellTiter-Glo (#G7571, Promega). Results were normalized to growth of cells in a medium containing an equivalent volume of DMSO. The inhibition curve was determined with GraphPad Prism 6.0 software using the ‘log(inhibitor) vs. response variable slope’ non-linear regression model.

Cc1cc(Nc2ncc(Cl)c(Nc3ccccc3S(=O)(=O)C(C)C)n2)c(OC(C)C)cc1C1CCNCC1 [ceritinib]
IL-3-independent growth of ALK-transformed Ba/F3 cells: effectively inhibited | growth in the presence of IL-3: no effect

COc1cc(N2CCC(N3CCN(C)CC3)CC2)ccc1Nc1ncc(Cl)c(Nc2ccccc2S(=O)(=O)C(C)C)n1 [TAE-684, NVP-TAE684]
IL-3-independent growth of ALK-transformed Ba/F3 cells: effectively inhibited | growth in the presence of IL-3: no effect
